Measurements reported in PMC11878344 (Angewandte Chemie (International Ed. in English), 2025).
Where two headings read alike, the source gives them in different places.

Assays:
[1] = target: T1, human MAGL (Homo sapiens, UniProt Q99685); experiment: In vitro MAGL inhibition assay (2-AG hydrolysis followed by mass spectrometry); format: biochemical
T1 sequence (Q99685 1-303): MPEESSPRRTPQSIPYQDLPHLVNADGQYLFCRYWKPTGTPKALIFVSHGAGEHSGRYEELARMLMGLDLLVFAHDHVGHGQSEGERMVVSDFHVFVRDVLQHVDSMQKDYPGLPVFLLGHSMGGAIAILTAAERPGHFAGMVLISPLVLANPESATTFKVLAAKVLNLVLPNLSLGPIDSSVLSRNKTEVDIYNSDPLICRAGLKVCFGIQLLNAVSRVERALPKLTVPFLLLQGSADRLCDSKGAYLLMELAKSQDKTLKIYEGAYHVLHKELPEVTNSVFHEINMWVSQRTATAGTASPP
Protocol: (§1) 4. Experimental Details of Biochemical Assays and Crystal Structure
(§2) In Vitro MAGL Inhibition Assay
(§3) Compounds were profiled for MAGL inhibitory activity by determining the enzymatic activity by following the hydrolysis of the natural substrate 2-arachidonoylglycerol (2-AG), resulting in arachidonic acid, which can be followed by mass spectrometry. The 2-AG assay was carried out in 384 well assay plates (PP, Greiner Cat# 784201) in a total volume of 20 µL. Compound dilutions were made in 100% DMSO (VWR Chemicals 23500.297) in a polypropylene plate in 3-fold dilution steps to give a final concentration range in the assay from 12.5 µM to 0.8 pM. 0.25µL compound dilutions (100% DMSO) were added to 9 µL MAGL in assay buffer (50 mM TRIS (GIBCO, 15567-027), 1 mM EDTA (Fluka, 03690-100 mL), 0.01% (v/v) Tween. After shaking, the plate was incubated for 15 min at RT. To start the reaction, 10 µL 2-arachidonoylglycerol in assay buffer was added. The final concentrations in the assay were 50 pM MAGL and 8 µM 2-arachidonoylglyerol. After shaking and 30 min incubation at RT, the reaction was quenched by the addition of 40µL of ACN containing 4 µM of d8-arachidonic acid. The amount of arachidonic acid was traced by an online SPE system (Agilent Rapidfire) coupled to a triple quadrupole mass spectrometer (Agilent 6460). A C18 SPE cartridge (G9205A) was used in an ACN/water liquid setup. The mass spectrometer was operated in negative electrospray mode following the mass transitions 303.1 → 259.1 for arachidonic acid and 311.1 → 267.0 for d8-arachidonic acid. The activity of the compounds was calculated based on the ratio of intensities [arachidonic acid / d8- […]
(§4) This assay was performed as first described before.[39] […]

[2] = target: T2, mouse MAGL (Mus musculus, UniProt O35678); experiment: as above; format: biochemical
T2 sequence (O35678 1-303): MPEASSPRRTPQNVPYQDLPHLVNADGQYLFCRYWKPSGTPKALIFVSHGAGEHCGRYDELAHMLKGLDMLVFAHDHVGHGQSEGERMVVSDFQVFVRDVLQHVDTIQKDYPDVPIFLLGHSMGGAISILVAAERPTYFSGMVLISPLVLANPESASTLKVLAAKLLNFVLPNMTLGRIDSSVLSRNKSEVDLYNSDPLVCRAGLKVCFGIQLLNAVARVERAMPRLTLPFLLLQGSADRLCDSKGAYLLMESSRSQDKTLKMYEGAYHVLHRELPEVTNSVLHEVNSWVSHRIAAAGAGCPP
Protocol: as §1, §2, §3, §4

[3] = target: T3, NanoLuc luciferase MAGL fusion protein in HEK293A cells (Homo sapiens, UniProt Q99685); experiment: Cellular MAGL NanoBRET target engagement assay; format: cell-based
T3 construct: expressed in transfected cells
T3 sequence (Q99685 1-303): T1 sequence (Q99685 1-303)
Protocol: We, therefore, confirmed cellular MAGL target engagement in a nanoBRET assay using live HEK293 cells.[39] […] To overcome the low cellular potency of 4, we exploited the modular construction principle to modulate unfavorable physicochemical properties and investigated less polar, privileged head groups[23, 33, 40] (Supporting Information Table S4). […]
This assay was performed as first described before.[39]
Compounds were profiled by a novel cellular MAGL NanoBRET™ Target Engagement assay, which measures the apparent affinity of test compounds by competitive displacement of a Roche-developed Tracer (WO2021058443, Example 21)[21], reversibly bound to a NanoLuc® luciferase MAGL fusion protein in cells.
A HEK293A stable cell line expressing NanoLuc_MAGL was established at Roche and assigned as HEK293A_NanoLuc_MAGL clone #43. A fixed concentration of tracer is added to cells expressing the NanoLuc®_MAGL fusion protein to generate a BRET reporter complex. The introduction of competing compounds results in a dose-dependent decrease in NanoBRET™ energy transfer, which allows quantification of the intracellular affinity of the target protein for the […]
HEK293A_NanoLuc_MAGL clone #43 cells were cultured in DMEM (Gibco 31966) with 10% FBS and 800 ug/ml G418. The NanoBRET assay was performed by seeding 5000 cells/well in Costar low-volume white 384-well plate in assay buffer (1% FBS in HBSS), followed by adding 50 nM final concentration of tracer and serial dilutions of test compounds. After 2 hours of incubation, Nanoluciferase substrates and extracellular inhibitors were added following the manufacturer's protocol (Promega, #N2520), and the NanoBRET signaling were quantified with the Paradigm

[4] = target: Cyno MAGL (Macaca fascicularis, UniProt A0A2K5V664); experiment: In vitro MAGL inhibition assay; format: biochemical, cynomolgus monkey; conditions: Supporting Information Table S4
Protocol: as §1, §2
Compounds were profiled for MAGL inhibitory activity by determining the enzymatic activity by following the hydrolysis of the natural substrate 2-arachidonoylglycerol (2-AG), resulting in arachidonic acid, which can be followed by mass spectrometry. The 2-AG assay was carried out in 384 well assay plates (PP, Greiner Cat# 784201) in a total volume of 20 µL. Compound dilutions were made in 100% DMSO (VWR Chemicals 23500.297) in a polypropylene plate in 3-fold dilution steps to give a final concentration range in the assay from 12.5 µM to 0.8 pM. […] The activity of the compounds was calculated based on the ratio of intensities [arachidonic acid / d8- […]

[5] = system: MAGL; design: method as in PMID 35089028, PMID 34764251, PMID 34328319, PMID 29498843; conditions: known MAGL ligands of Figure 1; cited from earlier work
[6] = Fluorescence excitation/absorption and emission maxima; format: physicochemical; conditions: PBS pH 7.4
Source text: Figure S8. Fluorescence excitation and emission spectra of the utilized fluorescent reporters in PBS pH 7.4. Spectra l differences between probes carrying the same fluorophore were […]
Table S6. Fluorescence excitation, emission maxima, and Stokes-shift in PBS pH 7.4 for the used fluorophores, respectively. difference s between probes with the same fluorophore were […]
λmax Excitation [nm] λmax Emission [nm] Stokes-shift [nm]
(1 picture or pasted object on this page, not shown here)

[7] = Supporting Information Tables S1-S5, read-out: IC50 hMAGL
[8] = Supporting Information Tables S1-S5, read-out: IC50 mMAGL
[9] = Table 1, n=1 to 3, read-out: hMAGL IC50
[10] = Table 1, n=1 to 3, read-out: mMAGL IC50
[11] = Table 1, transfected HEK293 cells, n=1 to 3, read-out: HEK293 nanoBRET IC50
[12] = Table 2, mean of three independent measurements ± SD, read-out: hMAGL IC50±SD
[13] = Table 2, mean of three independent measurements ± SD, read-out: mMAGL IC50±SD
[14] = Table 2, mean of three independent measurements ± SD, read-out: HEK 293 nanoBRET IC50±SD

Chain of Cyno MAGL (A0A2K5V664 entry or part of it): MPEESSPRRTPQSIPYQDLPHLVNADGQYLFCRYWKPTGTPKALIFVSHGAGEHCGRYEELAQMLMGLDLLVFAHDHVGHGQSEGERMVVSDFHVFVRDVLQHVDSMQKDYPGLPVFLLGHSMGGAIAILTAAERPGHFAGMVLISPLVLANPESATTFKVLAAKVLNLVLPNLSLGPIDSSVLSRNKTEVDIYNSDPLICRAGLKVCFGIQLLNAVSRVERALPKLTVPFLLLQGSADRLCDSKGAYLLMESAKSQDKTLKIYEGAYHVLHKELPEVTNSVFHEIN

SMILES | IC50 [1, 7] [nM] | IC50 [2, 8] [nM] | IC50 [1, 9] [nM] | IC50 [2, 10] [nM] | IC50 [3, 11] [nM] | other results
O=C1COc2ccc(C(=O)N3CC(COCc4ccccc4OCCNC(=O)OCc4ccccc4)C3)cc2N1 [Compound S18] | 7.5 | 35 | – | – | – | –
O=C1CO[C@H]2CCN(C(=O)N3CC(COCc4cccc(OCCNC(=O)OCc5ccccc5)c4)C3)C[C@H]2N1 [Compound 2] | 31 | 97 | 30.8 | 97.4 | 406 | –
O=C1CO[C@H]2CCN(C(=O)N3CC(OCc4cccc(OCCNC(=O)OCc5ccccc5)c4)C3)C[C@H]2N1 [Compound S9] | 44 | 38 | – | – | – | –
O=C1CO[C@H]2CCN(C(=O)N3CC4(CCC(OCc5ccccc5OCCNC(=O)OCc5ccccc5)CC4)C3)C[C@H]2N1 [Compound S4] | 15 | 38 | – | – | – | –
O=C1CO[C@H]2CCN(C(=O)N3CC(COCc4ccccc4OCCCNC(=O)OCc4ccccc4)C3)C[C@H]2N1 [Compound S7] | 3 | 7 | – | – | – | –
O=C(NCCOc1ccccc1COCC1CN(C(=O)OC(C(F)(F)F)C(F)(F)F)C1)OCc1ccccc1 [Compound 7] | – | – | 0.65 | 0.85 | 222 | –
O=C1CO[C@H]2CCN(C(=O)N3CCC4(CC3)CC(OCc3ccccc3OCCNC(=O)OCc3ccccc3)C4)C[C@H]2N1 [Compound S5] | 7 | 21 | – | – | – | –
O=C(NCCOc1ccccc1COCC1CN(C(=O)CC[C@@H]2COC(=O)N2)C1)OCc1ccccc1 [Compound S19] | 9.2 | 66 | – | – | – | –
O=C(NCCCCCOc1ccccc1CC1CC2(C1)CN(C(=O)O[C@H](CO)C(F)(F)F)C2)O[C@H]1CC/C=C/CCC1 [Compound 14] | – | – | – | – | – | IC50 [1, 12]: 0.31 ± 0.13 nM; IC50 [2, 13]: 0.42 ± 0.17 nM; IC50 [3, 14]: 1250 ± 507 nM
O=C1CO[C@H]2CCN(C(=O)N3CC(COCc4ccccc4OCCCCCNC(=O)OCc4ccccc4)C3)C[C@H]2N1 [Compound S8] | 46 | 144 | – | – | – | –
CN1/C(=C\C=C\C2=[N+](CCCCCC(=O)NCCOc3ccccc3CC3CC4(C3)CN(C(=O)N3CC5(COC(=O)N5)C3)C4)c3ccccc3C2(C)C)C(C)(C)c2ccccc21 [Compound S21] | 0.122 | 0.119 | – | – | – | –
C#CCCCC(=O)NCCOc1ccccc1CC1CC2(C1)CN(C(=O)OC(C(F)(F)F)C(F)(F)F)C2 [Compound 13] | – | – | – | – | – | IC50 [1, 12]: 0.14 ± 0.04 nM; IC50 [2, 13]: 0.13 ± 0.05 nM; IC50 [3, 14]: 99 ± 23 nM
O=C1CO[C@H]2CCN(C(=O)N3CC4(CC(OCc5cccc(OCCNC(=O)OCc6ccccc6)c5)C4)C3)C[C@H]2N1 [Compound S11] | 28 | 76 | – | – | – | –
O=C(NCCOc1ccccc1COCC1CN(C(=O)N2CC3(COC(=O)N3)C2)C1)OCc1ccccc1 [Compound 5] | – | – | 0.29 | 0.59 | 61 | IC50 [4]: 0.094 nM
O=C1CO[C@H]2CCN(C(=O)N3C[C@@H]4C(COCc5ccccc5OCCNC(=O)OCc5ccccc5)[C@@H]4C3)C[C@H]2N1 (stereo partly drawn) [Compound S6] | 97 | 315 | – | – | – | –
O=C1CO[C@H]2CCN(C(=O)N3CC(COCc4ccccc4)C3)C[C@H]2N1 [Compound 1] | – | – | 379 | 526 | > 10000 | –
Cc1ccc(C(c2ccccc2)C2CCN(C(=O)N3CCC4OCC(=O)NC4C3)CC2)cc1 (stereo not drawn) [Compound 85] | – | – | – | – | – | IC50 [5]: 0.1 nM
O=C1CO[C@H]2CCN(C(=O)N3CC(OCc4ccccc4OCCNC(=O)OCc4ccccc4)C3)C[C@H]2N1 [Compound S1] | 70 | – | – | – | – | –
O=C1CO[C@H]2CCN(C(=O)N3CC4(CC(OCc5ccccc5OCCNC(=O)OCc5ccccc5)C4)C3)C[C@H]2N1 [Compound S3] | 11 | 38 | – | – | – | –
O=C1NC2(CO1)CN(C(=O)N1CC3(CC(Cc4ccccc4OCCNc4ccc([N+](=O)[O-])c5c4NON5)C3)C1)C2 [Compound 8] | 0.124 | 0.138 | 0.09 | 0.11 | 307 | IC50 [1, 12]: 0.09 ± 0.03 nM; IC50 [2, 13]: 0.12 ± 0.04 nM; λmax Em (fluorescence emission maximum) [6]: 554 nm; λmax Ex (fluorescence excitation maximum) [6]: 479 nm; IC50 [3, 14]: 308 ± 114 nM
O=C1CO[C@H]2CCN(C(=O)N3CC(COCc4ccccc4OCCNC(=O)OCc4ccccc4)C3)C[C@H]2N1 [Compound 3] | 2 | 5 | 2.14 | 5.41 | 141 | –
O=C1NC2(CO1)CN(C(=O)N1CC(COCc3ccccc3OCCNc3ccc([N+](=O)[O-])c4nonc34)C1)C2 [Compound 6] | – | – | 0.72 | 1.03 | 318 | –
